Source: patent US5550212A, “Analogues of hGH-RH(1-29)NH2 having antagonistic activity” (The Administrators of the Tulane Educational Fund, priority 1993, dated 1996)
Non-standard residues stand in square brackets, D forms with d. Residues, ends and D or L forms follow the SMILES beside them.

What was measured:
[1] = target: T1, rat pituitary GH-RH receptors (Rattus norvegicus, UniProt Q02644); assay: GH-RH binding assay, competitive binding on rat anterior pituitary membrane homogenates
T1 construct: from tissue; host or cells: rat anterior pituitary (male Sprague-Dawley), crude membranes
T1 sequence (Q02644 23-464): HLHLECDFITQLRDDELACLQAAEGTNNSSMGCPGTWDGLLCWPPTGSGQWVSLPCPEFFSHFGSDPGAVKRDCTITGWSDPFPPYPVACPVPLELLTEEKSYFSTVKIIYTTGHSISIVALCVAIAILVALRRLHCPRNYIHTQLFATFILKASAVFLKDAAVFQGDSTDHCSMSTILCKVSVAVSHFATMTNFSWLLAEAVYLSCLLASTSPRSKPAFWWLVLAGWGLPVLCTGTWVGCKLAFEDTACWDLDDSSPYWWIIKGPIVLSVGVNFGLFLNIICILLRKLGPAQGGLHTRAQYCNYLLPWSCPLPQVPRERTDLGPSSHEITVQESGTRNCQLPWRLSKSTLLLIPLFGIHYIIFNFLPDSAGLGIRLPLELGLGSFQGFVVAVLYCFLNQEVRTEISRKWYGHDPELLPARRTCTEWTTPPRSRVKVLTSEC
Method: GH-RH Binding Assay. A sensitive radioreceptor binding assay was developed to determine the binding characteristics of the antagonists of GH-RH (G. Halmos, A. V. Schally et al., Receptor 3, 87-97, 1993), hereby incorporated by reference. The assay is based on binding of labelled [His^1,Nle^27 ]hGH-RH(1-32)NH2 to rat anterior pituitary membrane homogenates. Iodinated derivatives of [His^1,Nle^27 ]hGH-RH(1-32)NH2 are prepared by the chloramine-T method (F. C. Greenwood et al., Biochemistry 89:114-123, 1963), hereby incorporated by reference. Pituitaries from male Sprague-Dawley rats (250-300 g) are used to prepare crude membranes. For saturation binding analyses, membrane homogenates are incubated with at least 6 concentrations of [His^1,^25 I-Tyr^10,Nle^27 ]hGH-RH(1-32)NH2, ranging from 0.005 to 0.35 nM in the presence or absence of excess unlabelled peptide (1 μM). The pellet is counted for radioactivity in a y-counter. The affinities of the antagonist peptides tested to rat pituitary GH-RH receptors are determined in competitive binding experiments. The final binding affinities are estimated by Ki (dissociation constant of the inhibitor-receptor complex) and are determined by the Ligand PC computer program of Munson and Rodbard as modified by McPherson. Relative affinities compared to [Ac-Tyr^1,D-Arg^2 ]hGH-RH(1-29)NH2, the Standard antagonist, are calculated as the ratio of Ki of the tested GH-RH antagonist to the Ki of the Standard antagonist.

[2] = system: hGH-RH(1-29)NH2 induced GH release; assay: In vivo test: serum GH levels in rats pretreated with GH-RH antagonists before hGH-RH(1-29)NH2; design: species or system Sprague-Dawley rats
Method: In Vivo Tests. Adult male Sprague-Dawley rats are anesthetized with pentobarbital (6 mg/100 g b.w., i.p.). Blood samples are taken from the jugular vein 30 min after the injection of pentobarbital. One group of 7 animals receives hGH-RH(1-29)NH2 as control. Other groups of rats are injected with [Ac-Tyr^1,D-Arg^2 ]hGH-RH(1-29)NH2 as Standard antagonist, or with one of the antagonist peptide 30 seconds prior to hGH-RH(1-29)NH2, which is administered at dose of 2-3 μg/kg b.w. Blood samples are taken from the jugular vein 5 and 15 min after the injection of antagonists. GH levels are measured by RIA. Potencies of the antagonists are calculated by the factorial analysis of Bliss and Marks with 95% confidence limits and are based on the doses of 100 and 400 μg/kg b.w. of the Standard antagonist and 20 and 80 μg/kg b.w. of the antagonists tested. Statistical significance was assessed by Duncan's new multiple range test.

[3] = system: hGH-RH(1-29)NH2 induced GH release; assay: Superfused rat pituitary system: inhibition of hGH-RH(1-29)NH2 induced GH release; assay type: cell-based; conditions: dose 100 nM
Method: Superfused Rat Pituitary System. The analogues were tested in vitro in a test described earlier (S. Vigh and A. V. Schally, Peptides 5:241-[…], 1984) with modification ([…] and […]. 90:2146-2149, 1993). Briefly, the cells are preincubated with peptides for 9 minutes (3 mL) at various concentrations. Immediately after the incubation, 1 nM hGH-RH(1-29)NH2 is administered for 3 minutes (1 mL) [0 minute response]. To check the duration of the antagonistic effect of the analogue, 1 nM hGH-RH(1-29)NH2 is applied 30, 60, 90, and 120 minutes later for 3 minutes [30, 60, 90, 120 min responses]. Net integral values of the GH responses are evaluated. GH responses are compared to and expressed as percent of the original GH response induced by 1 nM GH-RH(1-29)NH2. The effect of the new antagonists are compared to that of [Ac-[…] ]hGH-RH(1-29)NH2, the "Standard antagonist". Growth Hormone Radio-immunoassay. Rat GH levels in aliquots of undiluted and diluted superfusion samples were measured by double-antibody radioimmunoassay using materials supplied by the National Hormone and Pituitary Program, Baltimore, Md. The results of RIA were analyzed with a computer program developed in our institute (V. Csernus and A. V. Schally, Harwood Academic (Greenstein, B. C. ed., London, pp. 71-109, 1991), hereby incorporated by reference. Inter-assay variation was less than 15% and intra-assay variation was less than 10%.

GH release = conditions: cited from earlier work

| Compound | Ki ([1]; competition with labelled [His1,Nle27]hGH-RH(1-32)NH2) [nM] | R.A. (relative affinity compared to the Standard antagonist) ([1]; ratio of Ki values, Standard = 1) | GH Levels ([2]; antagonist 100.0 μg/kg intravenously before GH-RH(1-29)NH2) [ng/mL] | GH Levels ([2]; antagonist 400.0 μg/kg intravenously before GH-RH(1-29)NH2) [ng/mL] | Inhibition of GH release (%) 0 min ([3]; 0 min response) [%] | Inhibition of GH release (%) 30 min ([3]; 30 min response) [%] | Inhibition of GH release (%) 60 min ([3]; 60 min response) [%] | in vivo potency over that of GH-RH (GH release) |
| --- | --- | --- | --- | --- | --- | --- | --- | --- |
| CC[C@H](C)[C@H](NC(=O)[C@H](C)NC(=O)[C@H](CC(=O)O)NC(=O)[C@@H](CCCNC(=N)N)NC(=O)[C@H](Cc1ccc(O)cc1)NC(C)=O)C(=O)N[C@@H](Cc1ccccc1)C(=O)N[C@H](C(=O)N[C@@H](CC(N)=O)C(=O)N[C@@H](CO)C(=O)N[C@@H](Cc1ccc(O)cc1)C(=O)N[C@@H](CCCNC(=N)N)C(=O)N[C@@H](CCCCN)C(=O)N[C@H](C(=O)N[C@@H](CC(C)C)C(=O)NCC(=O)N[C@@H](CCC(N)=O)C(=O)N[C@@H](CC(C)C)C(=O)N[C@@H](CO)C(=O)N[C@@H](C)C(=O)N[C@@H](CCCNC(=N)N)C(=O)N[C@@H](CCCCN)C(=O)N[C@@H](CC(C)C)C(=O)N[C@@H](CC(C)C)C(=O)N[C@@H](CCC(N)=O)C(=O)N[C@@H](CC(=O)O)C(=O)N[C@H](C(=O)N[C@@H](CCSC)C(=O)N[C@@H](CO)C(=O)N[C@@H](CCCNC(=N)N)C(N)=O)[C@@H](C)CC)C(C)C)[C@@H](C)O [Standard antagonist, [Ac-Tyr^1, D-Arg^2]hGH-RH(1-29)NH2, reference compound] (Ac-Y[dR]DAIFTNSYRKVLGQLSARKLLQDIMSR-NH2) | 3.22 ± 0.12 | 1 | 738.3 ± 34.7 | 439.7 ± 47.3 | 62.1 | 2.5 | 19 | – |
| [AcTyr^1 ]hGH-RH(1-29)NH2 | – | – | – | – | – | – | – | ten fold or more |
